Like-named read-outs stand apart in the source and are kept apart here.
Experiments:
B. anthracis = assay type: cell-based, Bacillus anthracis; conditions: vegetative cells; component alone; 24 h
B. cereus = assay type: cell-based, Bacillus cereus
B. subtilis = assay type: cell-based, Bacillus subtilis
B. pumilus RJ 0055 = assay type: cell-based, Bacillus pumilus
L. mesenteroides B 512F = assay type: cell-based, Leuconostoc mesenteroides
[1] = test system: Xanthomonas maltophilia 948; assay type: cell-based
B. anthracis spores = assay type: cell-based, Bacillus anthracis; conditions: component alone
B. cereus spores = assay type: cell-based, Bacillus cereus
B. subtilis spores = assay type: cell-based, Bacillus subtilis
[2] = test system: B. pumilus RJ 0055 spores; assay type: cell-based, Bacillus pumilus
[3] = test system: Pseudomonas aeruginosa ATCC 1942
[4] = vegetative cells, component alone, 24 h
[5] = component alone, 24 hours at 35° C.

`OO` [H2O2, hydrogen peroxide] showed an MIC (B. anthracis) of 0.01 wt %, an MIC (B. cereus) of 0.025 wt % and an MIC (B. subtilis) of 0.025 wt %. The MIC (B. pumilus RJ 0055) was 0.025 wt %, the MIC (L. mesenteroides B 512F) was 0.006 wt % and the MIC [1] was 0.005 wt %. The MIC (B. anthracis spores) was 1.0 wt %, the MIC (B. cereus spores) was 5.0 wt % and the MIC (B. subtilis spores) was 5.0 wt %. The MIC [2] was 4.0 wt %, the MIC (E. coli B ATCC 23226) was 0.01 wt % and the MIC (S typhimurium ATCC 14028) was 0.01 wt %. For the same compound, the MIC (Listeria monocytogenes) was 0.005 wt % and the MIC [3] was 150 weight ppm.

`[Na+].[O-]Cl` [NaHClO3, sodium hypochlorite] showed an MIC (B. anthracis) of 0.05 wt %, an MIC (B. cereus; [4]) of 0.1 wt % and an MIC (B. subtilis; [4]) of 0.1 wt %. The MIC (B. pumilus RJ 0055; [4]) was 0.1 wt %, the MIC (L. mesenteroides B 512F; [4]) was 0.035 wt % and the MIC [1, 4] was 0.01 wt %. For the same compound, the MIC (B. anthracis spores) was 1.0 wt %, the MIC (B. cereus spores; […], component alone) was 4.0 wt % and the MIC (B. subtilis spores; […], component alone) was 4.0 wt %. It also gave an MIC ([2]; […], component alone) of 3.5 wt %, an MIC (E. coli B ATCC 23226; [4]) of 0.02 wt % and an MIC (S typhimurium ATCC 14028; [4]) of 0.02 wt %. The MIC (Listeria monocytogenes; [4]) was 0.05 wt % and the MIC [3, 5] was 500 weight ppm.

In the case of `[Na+].[Na+].[O-][O-]` [Sodium Peroxide, sodium peroxide], the MIC [3, 5] was 150 weight ppm.
